In patent publication US5565460A, “Therapeutic purine agents for parkinson's disease” (Kyowa Hakko Koygo Co., Ltd., priority 1993, dated 1996):

How the values were obtained:
[1] = tested on: Haloperidol-induced catalepsy in mice; experiment: Effect on haloperidol-induced catalepsy; assay type: in vivo, male ddY mice; details: 10 mg/kg, oral; for Number of the Animals Showing Remission: five mice, catalepsy score not more than 4; for Remission Rate: rate of decrease in total score based on control group; for Total Score (catalepsy): total of five mice, 25 points at the full (control 25), not more than 20 effective
Procedure: The experiment was performed by using several groups of 5-weeks-old male ddY mice (weighing 22.to 24 g, Japan SLC), each group consisting of 5 mice. Haloperidol (Janssen Pharmaceutical) suspended in 0.3% CMC was intraperitoneally administered to each mouse at a dose of 1.0 mg/kg. Test compounds were suspended in 0.3% CMC or in injectable distilled water (Otsuka Pharmaceutical Co., Ltd.) containing Tween 80. L-DOPA (Kyowa Hakko Kogyo Co., Ltd.) and benserazide hydrochloride (Kyowa Hakko Kogyo Co., Ltd.) were suspended in 0.3% CMC. One hour after the haloperidol administration, the test compound suspensions and the control suspension [injectable distilled water (Otsuka Pharmaceutical Co., Ltd.) containing Tween 80] containing no test compound were orally administered to separate groups of the mice (0.1 ml per 10 g of body weight). One hour after the administration of the test compound, the forelimbs of each mouse and subsequently the hindlimbs of the same mouse were placed on a 4.5 cm-high, 1.0 cm-wide bar and catalepsy was estimated. […] The catalepsy score and the standard of judgment are shown. below.
0: forelimbs less than 5 seconds
hindlimbs less than 5 seconds
2: forelimbs 10 seconds or more
hindlimbs 5 seconds or more
hindlimbs 10 seconds or more
5: forelimbs 10 seconds or more
The effect of the compounds was evaluated by the total of the catalepsy scores of five mice in each group (25 points at the full). The groups wherein the total score was not more than 20 point is were estimated to be effective. The number of the animals showing remission against catalepsy is the number of the mice for which the catalepsy score was not more than 4 points.
The ED50 values were calculated by Probit analysis.

rid-strain male mice = experiment: Acute toxicity test; assay type: in vivo; details: oral, seven days after administration
Procedure: Test compounds were orally administered to groups of rid-strain male mice weighing 20±1 g, each group consisting of three mice. Seven days after the administration, minimum lethal dose (MLD) of each compound was determined by observing the mortality.

[2] = tested on: Parkinson's disease model in mice (MPTP); experiment: Effect on locomotor activity in Parkinson's disease model in mice (MPTP-treated mice); assay type: in vivo, male C57BL/6 mice; details: 30 minutes measurement
Procedure: 1-Methyl-4-phenyl-1,2,3,6-tetrahydropyridine (MPTP) causes symptoms of Parkinson's disease in humans Science, 219, 979 (1983)]. It is reported that an experimental Parkinson's disease model was obtained by administering MPTP to mice [Science, 224, 1451 (1984)]. If a compound is effective on the experimental Parkinson's disease model in mouse, the compound can be expected to have a therapeutic effect on Parkinson's disease.
The experiment was performed by using several groups of 7-weeks-old male C57BL/6 mice (weighing 20 to 24 g, Japan SLC), each group consisting of 8 mice. MPTP (RBI Co., Ltd. ) dissolved in a physiological saline solution (Otsuka Pharmaceutical Co., Ltd. ) was intraperitoneally administered to each mouse once a day for five consecutive days at a dose of 30 mg/kg. Test compounds were suspended in injectable distilled water (Otsuka Pharmaceutical Co., Ltd.) containing Tween 80 [polyoxyethylene (20) sorbitan monooleate]. […] The amount of active movements of each mouse was measured by using Automex-II (Columbus Instruments International Corp.) for the period of 30 minutes starting 30 minutes after the administration of the test compound. The effect of the compounds was evaluated by comparing the average counts of the active movements of the test compound-administered groups with those of the control groups. […]

[3] = tested on: Haloperidol-induced catalepsy in mice; experiment: Effect on haloperidol-induced catalepsy; assay type: in vivo, male ddY mice; details: Mus musculus; ten mice at each dose; effective = catalepsy score 3 or less; Probit analysis; read-out: ED50 (50% effective dose)
[4] = tested on: rats with a 6-hydroxydopamine-induced unilateral lesion of the nigrostriatal dopamine pathway; experiment: Augmentation of the contralateral rotation in rats with a 6-hydroxydopamine-induced unilateral lesion of the nigrostriatal dopamine pathway; assay type: in vivo, male Sprague-Dawley rats; details: 150 minutes
From the text: When a unilateral lesion of the nigrostriatal pathway is induced by 6-hydroxydopamine in rodents, the sensitivity of dopamine receptors in the denervated striatum is enhanced. Administration of a dopamine […] to the rodents in such a condition induces a rotational behavior to the side contralateral to the lesioned side [Acta Physiol. Scand., 367, 69 (1971)]. This model has been used for a long time as a model for the study of Parkinson's disease and in the screening of drugs for this disease [Neurol. Neurobiol.; 33, 1 (1987)].
Male Sprague-Dawley rats (weighing 200 to 240 g, Japan SLC) were pretreated with desipramine hydrochloride (25 mg/kg, i.p., Sigma Co.) 30 minutes before surgery to protect noradrenergic neurons. Then, the animals were: anesthetized with sodium pentobarbital (30 mg/kg, i.p., Dainippon Pharm. Co., Ltd.) and the nigrostriatal pathway was lesioned by injection of 6-hydroxydopamine hydrobromide (8 μg, Sigma Co.) into the left medial forebrain bundle. 6-Hydroxydopamine hydrobromide was dissolved in physiological saline containing 0.05% L-ascorbic acid (Wako Pure Chem. Industries, Ltd.) to make 2 μl. of solution and injected over 3 minutes.
More than 10 days after surgery, each rat was placed in a plastic bowl (30 cm in diameter). […] The number of rotations was counted with an automated rotometer, in which each 180° turn was counted as a rotation. […]

Question: Which “Number of the Animals Showing Remission” value [1] does the source give for `Nc1nc2ccc(Cl)cc2c2nc(-c3ccco3)nn12` [Compound 3, 5-Amino-9-chloro-2-(2-furyl) -1,2,4-triazolo-[1,5-c]quinazoline] here?
Answer: The value was 4.

Question: And the “Remission Rate” value [1]?
Answer: Its value is 48%.

Question: And the “Total Score (catalepsy)” value [1]?
Answer: The value was 13.

Question: How did the “minimum lethal dose (MLD)” value (rid-strain male mice) turn out when `Nc1nc(Oc2ccccc2)nc2nc(-c3ccco3)nn12` [Compound 1, 7-Amino-2(2-furyl) -5-phenoxy [1,2,4]triazolo[1,5-a]-1,3,5-triazine] was run?
Answer: The value was “greater than 300 mg/kg”.

Question: What about the “Amount of Active Movements (average count ± S.E.M)” value ([2]; 10 mg/kg, oral, MPTP group 41 ± 14.3, normal control 1984 ± 122.3) of the same compound?
Answer: Its value is 785 ± 87.3 count.

Question: What about the ED50 [3] of the same compound?
Answer: The ED50 was 1.3 mg/kg.

Question: And the “Number of the Animals Showing Remission” value [1]?
Answer: Its value is 5.

Question: What about the “Remission Rate” value [1] of the same compound?
Answer: Its value is 80%.

Question: And the “Total Score (catalepsy)” value [1]?
Answer: Its value is 5.

Question: What about the “total rotation counts (average count ± S.E.M.), test compound + apomorphine” value ([4]; 10 mg/kg oral 30 minutes before apomorphine 0.1 mg/kg, s.c., p<0.05) of the same compound?
Answer: Its value is 1011 ± 139 count.

Question: How did the “Number of the Animals Showing Remission” value [1] turn out when `Nc1nc2nn(Cc3ccc(F)cc3)cc2c2nc(-c3ccco3)nn12` [Compound 4, 5-Amino-8-(4-fluorobenzyl) -2-(2-furyl)pyrazolo-[4,3-e]-1,2,4-triazolo [1,5-c]pyrimidine] was run?
Answer: The value was 3.

Question: And the “Remission Rate” value [1]?
Answer: The value was 52%.

Question: What about the “Total Score (catalepsy)” value [1] of the same compound?
Answer: The value was 12.

Question: Which “Amount of Active Movements (average count ± S.E.M)” value ([2]; L-DOPA 300 mg/kg, MPTP group 207 ± 85.5, normal control 1875 ± 77.7, no significant difference vs MPTP-treated group) does the source give for `N[C@@H](Cc1ccc(O)c(O)c1)C(=O)O` [L-DOPA, reference compound] here?
Answer: The value was 561 ± 271.01 count.

Question: With `CN1CCc2cccc3c2[C@H]1Cc1ccc(O)c(O)c1-3` [apomorphine, reference compound] as the compound, how does the “total rotation counts (average count ± S.E.M.), apomorphine” value ([4]; apomorphine 0.1 mg/kg, s.c. without test compound) read?
Answer: The value was 706 ± 59 count.

Question: `Nc1nc(Oc2ccccc2)nc2cc(-c3ccco3)nn12` [Compound 2, 7-Amino-2-(2-furyl) -5-phenoxypyrazolo [2,3-a]-1,3,5-triazine] was tested. Which “minimum lethal dose (MLD)” value (rid-strain male mice) did it give?
Answer: The value was “greater than 300 mg/kg”.

Question: What about the “Number of the Animals Showing Remission” value [1] of the same compound?
Answer: Its value is 4.

Question: What about the “Remission Rate” value [1] of the same compound?
Answer: The value was 32%.

Question: What about the “Total Score (catalepsy)” value [1] of the same compound?
Answer: The value was 17.
